This is an account of results in patent publication US20080221052A1, “Modulation of Wrn-Mediated Telomere-Initiated Cell Signaling” (priority 2004, published 2008).

Data set [1] relates to p53, E2F1 transcription factor. Put plainly: Western analysis of p53 and E2F1 in Jurkat cells. It is filed as cell-based, human. To be noted: by 24 hours after addition.
In a further data set the test system is DNA-PKCS. Put plainly: Western blot with antibody against ATM phosphoserine 1981 in normal newborn fibroblasts. To be noted: 40 μM, 4-48 hours. In kind it is cell-based. The method, then: The positions of ATM and DNA-PKCS are indicated. Sham and irradiated (10 Gy IR) fibroblasts were included as controls.
Normal newborn fibroblasts were treated with 40 μM T-oligo or an equal volume of diluent for 4, 6, 8, 16, 24 or 48 hours then collected and analyzed by Western blot using an antibody against ATM phosphoserine 1981. […] The phosphorylated protein was shown in subsequent experiments to co-migrate with the catalytic subunit of ATM-related DNA-dependent protein kinase (DNA-PKCS), which would reasonably be expected to bind an antibody raised against the highly homologous ATM protein.
A general note: In western blotting, separated proteins are transferred to a membrane and probed.

The subject of data set [2] is keratinocyte cell line (SSC12F). As to the kind of experiment: S-phase arrest by FACS in keratinocyte cell line. It is filed as cell-based. To be noted: 48 hours, 11 mer-1 alone (10 μM per FIG. 3B); diluent control 26%. The method, then:
FIGS. 3A-3G are profiles showing the results of fluorescence activated cell sorting, for the following additions to the cells: FIG. 3A, diluent; FIG. 3B, 10 μM 11 mer-1; FIG. 3C, 10 μM 11 mer-1 and 1 μM 11 mer-1-S; FIG. 3D, 10 μM 11 mer-1 and 5 μM 11 mer-1-S; FIG. 3E, 10 μM 11 mer-1 and 10 μM 11 mer-1-S; FIG. 3F, 20 μM 1 mer-1-S; FIG. 3G, 10 μM 11 mer-1-S.
Forty-three percent of the cells were in the S phase, compared to 26% of the control, diluent-treated cells.

The next data set concerns p53 serine 37. As to the kind of experiment: Western analysis of p53 phosphorylated on serine 37 in newborn fibroblasts. To be noted: 40 μM. In kind it is cell-based.
For another data set, the system named is S91 mouse melanoma cells. Put plainly: Melanin content of S91 mouse melanoma cells. It is filed as cell-based. To be noted: 6 days. The method, then:
FIG. 4 is a bar graph showing the melanin content (in pg/cell) of cells treated with diluent, pTpT or pTspT.
FIG. 5 is a bar graph showing the melanin content (in pg/cell) of cells treated with diluent, 11 mer-1 or 11 mer-1-S.
Cultures of S91 mouse melanoma cells (100,000 cells/38 cm^2) were treated with 100 μM pTpT or phosphorothioate pTpT (pTspT) (FIG. 4) or 40 μM 11 mer-1 or the phosphorothioate 11 mer-1 (11 mer-1-S) (FIG. 5) for 6 days and were then collected, counted and assayed for melanin content.

A further data set concerns the target T1, WRN (Homo sapiens, UniProt Q14191).
T1 construct: endogenous in cells; host or cells: normal neonatal fibroblasts
As to the kind of experiment: WRN siRNA knock-down and T-oligo response, western blot in normal neonatal fibroblasts. It is filed as cell-based. To be noted: 40 μM T-oligo, 24 or 48 hours, WRN siRNA-treated cells. The protocol:
Protein level of WRN on the day of T-oligo treatment is indicated at “0 Hrs”. T-oligo (40 μM, T) or diluent (D) were added and cells collected after 24 or 48 hours for western analysis. Control fibroblasts were either sham (IR, −) or irradiated with 10 Gy IR (IR, +) and collected after one hour. The western blot was probed with antibodies, recognizing WRN, p53 phosphoserine 15 or phospho H2AX.
Normal neonatal fibroblasts were treated on 2 consecutive days with 50 ρmol of WRN siRNA or […] of siRNA directed against the control green fluorescent protein (GFP). One day after the second siRNA treatment, representative cultures were collected for western blot analysis to assess the effectiveness of the WRN siRNA in eliminating the protein. Also at this time, duplicate cultures of WRN siRNA-treated or GFP siRNA-treated cultures were given either 40 μM T-oligo (11 mer-1; SEQ ID NO: 2) or an equal amount of diluent. Cells from all conditions were collected one or two days after the addition of T-oligo or diluent and were analyzed by western blot for p53 phosphorylation on serine 15 and phosphorylation of histone H2AX, both well-documented DNA damage responses (Lambert et al., 1998, J Biol Chem 273, 33048-53; Burma et al., 2001, J Biol Chem 276, 42462-7). Also as controls, cell lysates from cells sham-irradiated or irradiated with 10 Gy ionizing radiation (1R) were included. […]

The subject of the next data set is Jurkat cells. Put plainly: FACS analysis of propidium iodide stained Jurkat cells (S phase, sub-G0/G1 apoptosis). It is filed as cell-based, human. The protocol:
FIGS. 1A-1H show FACS analysis of propidium iodide stained Jurkat cells (immortalized T lymphocytes), treated with diluent (FIGS. 1A and 1E); 40 μM 11 mer-1 pGTTAGGGTTAG (SEQ ID NO: 2) (FIGS. 1B and 1F); 40 μM 11 mer-2 pCTAACCCTAAC (SEQ ID NO: 3) (FIGS. 1C and 11G); 40 μM 11 mer-3 pGATCGATCGAT (SEQ ID NO: 4) (FIGS. 1D and 1H). Jurkat cells were treated with the stated reagents for 48 hours before analysis (FIG. 1A-1D) or 72 hours (FIGS. 1E-1H).
FIGS. 2A-2F are profiles showing the results of fluorescence activated cell sorting, for the following additions to the cells: FIG. 2A, diluent; FIG. 2B, 0.4 μM 11 mer-1; FIG. 2C, 0.4 μM 11 mer-1-S; FIG. 2D, diluent; FIG. 2E, 40 μM 11 mer-1; FIG. 2F, 40 μM 11 mer-1-S.
Oligonucleotides homologous to the telomere overhang repeat sequence (TTAGGG; SEQ ID NO: 1), sequence (11 mer-1: pGTTAGGGTTAG; SEQ ID NO: 2), complementary to this sequence (11 mer-2: pCTAACCCTAAC; SEQ ID NO: 3) and unrelated to the telomere sequence (11 mer-3: pGATCGATCGAT; SEQ ID NO: 4) were added to cultures of Jurkat cells, a line of human T cells reported to undergo apoptosis in response to telomere disruption. Within 48 hours, 50% of the cells treated with 40 μM of SEQ ID NO: 2 had accumulated in the S phase, compared to 25-30% for control cells (p<0.0003, non-paired t-test; see FIGS. 1A-1D), and by 72 hours, 13% of these cells were apoptotic as determined by a sub-G0/G1 DNA content, compared to 2-3% of controls (p<0.007, non-paired t-test; see FIGS. 1E-1H). At 96 hours, 20±3% of the 11 mer-1 treated cells were apoptotic compared with 3-5% of controls (p<0.0001, non-paired t-test). To exclude preferential uptake of the 11 mer-1 as an explanation of its singular effects, Jurkat cells were treated with oligonucleotides labeled on the 3′ end with fluorescein phosphoramidite, then subjected to confocal microscopy and FACS analysis. The fluorescence intensity of the cells was the same after all treatments at 4 hours and 24 hours.
Cultures of Jurkat human T cells were treated with either diluent, 11 mer-1 (SEQ ID NO: 1) or the phosphorothioate 11 mer-1 (11 mer-1-S) for 96 hours, then collected and processed for FACS analysis. Two concentrations of the oligonucleotides were tested, 0.4 μM (FIGS. 2A-2C) and 40 μM (FIGS. 2D-2F).

The test system of a further data set is S91 cells. Put plainly: UV-induced melanogenesis in S91 cells (melanin content, OD 475 nm). In kind it is cell-based, mouse. To be noted: 100 μM, one week. An excerpt:
FIG. 6 is a bar graph showing the melanin content (in pg/cell) of cells that have been sham-treated (no irradiation, no oligonucleotides), or treated with ultraviolet light (UV), or unirradiated but given pTspT, or irradiated with UV and given pTspT.
Duplicate cultures of S91 cells (100,000 cells/39 cm^2) were either sham-irradiated or irradiated with 5 mJ/cm^2 solar-simulated light from a 1 kW xenon arc solar-simulator (XMN 1000-21, Optical Radiation, Azuza, Calif.) metered at 285 5 nm using a research radiometer (model IL1700A, International Light, Newburyport, Mass.). Two sham-irradiated plates were then supplemented with 100 μM pTspT and two irradiated cultures were similarly treated with pTspT. After one week, cells were collected, counted and analyzed for melanin content by dissolving the cell pellets in 1 N NaOH and measuring the optical density at 475 nm. […] However, this response was blocked by the addition of pTspT (FIG. 6). In addition, the constitutive pigmentation of these cells was reduced by the pTspT in the sham-irradiated cultures, similar to the data presented in FIGS. 4 and 5.

{P} = phosphate

T1 sequence (Q14191 whole entry): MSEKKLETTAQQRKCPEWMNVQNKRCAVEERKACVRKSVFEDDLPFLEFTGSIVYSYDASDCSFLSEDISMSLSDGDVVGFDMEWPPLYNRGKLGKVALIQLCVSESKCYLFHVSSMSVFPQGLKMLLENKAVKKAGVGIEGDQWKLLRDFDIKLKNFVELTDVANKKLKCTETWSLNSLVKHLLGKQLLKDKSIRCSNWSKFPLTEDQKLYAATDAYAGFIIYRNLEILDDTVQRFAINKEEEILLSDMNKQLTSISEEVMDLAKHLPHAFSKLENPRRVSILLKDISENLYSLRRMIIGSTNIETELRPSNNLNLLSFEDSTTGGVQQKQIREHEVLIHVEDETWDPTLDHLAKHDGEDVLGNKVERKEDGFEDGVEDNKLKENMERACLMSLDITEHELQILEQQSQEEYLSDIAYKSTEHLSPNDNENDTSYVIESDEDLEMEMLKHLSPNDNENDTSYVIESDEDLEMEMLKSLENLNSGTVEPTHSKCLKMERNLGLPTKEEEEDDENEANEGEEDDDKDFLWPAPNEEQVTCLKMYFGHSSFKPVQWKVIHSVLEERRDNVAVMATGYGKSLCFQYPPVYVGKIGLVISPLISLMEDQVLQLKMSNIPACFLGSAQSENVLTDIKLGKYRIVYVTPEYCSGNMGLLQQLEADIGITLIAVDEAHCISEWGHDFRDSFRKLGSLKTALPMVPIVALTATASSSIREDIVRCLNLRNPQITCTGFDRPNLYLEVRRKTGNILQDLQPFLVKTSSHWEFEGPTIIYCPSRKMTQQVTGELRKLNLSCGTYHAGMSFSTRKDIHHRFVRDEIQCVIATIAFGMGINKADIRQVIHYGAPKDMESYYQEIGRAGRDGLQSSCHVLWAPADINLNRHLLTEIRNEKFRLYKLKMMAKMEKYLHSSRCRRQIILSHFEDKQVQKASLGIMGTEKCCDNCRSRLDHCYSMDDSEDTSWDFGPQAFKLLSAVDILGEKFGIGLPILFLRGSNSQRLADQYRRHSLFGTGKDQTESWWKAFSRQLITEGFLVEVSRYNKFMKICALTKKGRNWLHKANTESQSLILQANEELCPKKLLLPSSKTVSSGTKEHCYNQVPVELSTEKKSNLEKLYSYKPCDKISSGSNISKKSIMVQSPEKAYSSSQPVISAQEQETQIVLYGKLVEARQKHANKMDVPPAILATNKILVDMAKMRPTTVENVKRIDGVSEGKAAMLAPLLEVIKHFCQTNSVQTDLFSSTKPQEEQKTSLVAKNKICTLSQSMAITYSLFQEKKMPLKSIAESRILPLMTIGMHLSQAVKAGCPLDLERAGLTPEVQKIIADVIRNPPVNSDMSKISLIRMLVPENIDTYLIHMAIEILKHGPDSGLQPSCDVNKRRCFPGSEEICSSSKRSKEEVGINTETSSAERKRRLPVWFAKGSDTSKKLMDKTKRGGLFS

On to “pGTTAGGGTTAG (DNA, 5' {P}, backbone not given here) [11 mer-1]”, for which, in data set [1], the “level of the E2F1 transcription factor” value was “concomitant increase” and the p53 level result is on record as “increase”. Also, the “phosphorylation of 450 kDa protein (DNA-PKCS)” value in the data set with DNA-PKCS is “leads to phosphorylation”. For the same substance, the “cells in the S phase” value in data set [2] is listed as “Forty-three”. Moreover, in the data set with p53 serine 37, the “phosphorylation of p53 serine 37” value was “phosphorylated”. For the same substance, the “stimulation of melanogenesis (melanin content)” value (“stimulation of melanogenesis” for short) in the data set on S91 mouse melanoma cells (40 μM) was “stimulated melanogenesis”. In addition, in the data set with WRN, the “ability to induce phosphorylation of H2AX after WRN knock-down” value is on record as “dramatically reduced” and the “ability to induce phosphorylation of p53 (serine 15) after WRN knock-down” value is reported as “dramatically reduced”. Moreover, the “effect on exponentially growing cell cycle profile” value in the data set with Jurkat cells (0.4 μM, 96 hours) is “neither of the oligonucleotides affected”. In addition, in the data set on Jurkat cells (40 μM, 72 hours, controls 2-3%), the “apoptotic cells (sub-G0/G1 DNA content)” value came to 13%. Besides, in the data set with Jurkat cells (40 μM, 96 hours), the “apoptosis (sub-G0/G1 peak)” value is recorded as “induced extensive apoptosis”. The “cells accumulated in the S phase” value with Jurkat cells (40 μM, within 48 hours, control cells 25-30%) amounted to 50%. For the same substance, the apoptotic cells in the data set on Jurkat cells (96 hours, controls 3-5%) worked out at 20±3%.

Turning to pTpT, the “stimulation of melanogenesis” value with S91 mouse melanoma cells (100 μM) was “stimulated melanogenesis”.

With pTspT, the “UV-induced doubling of melanin content” value in the data set with S91 cells (5 mJ/cm^2 solar-simulated light) is recorded as “blocked”. Besides, the constitutive pigmentation entry in the data set on S91 cells (sham-irradiated cultures) is “reduced”. For the same substance, in the data set with S91 mouse melanoma cells (100 μM), the constitutive pigmentation entry was “reduced the constitutive pigmentation” and the “stimulation of melanogenesis” value is “did not”.
